Data reported in EP3074389B1, “QUINOLINE DERIVATIVES AS BROMODOMAIN INHIBITORS” (Gilead Sciences, Inc., priority 2013, dated 2015).
pKd: −log10 of the molar value.

Assays:
BRD4 domain 1 = BRD4 domain 1 (Homo sapiens, UniProt O60885); assay: Kd determination of inhibitors binding to BRD4 domain 1 (Epic label-free platform); conditions: direct binding to immobilized BRD4 domain 1; tripling dilution series from 20µM; about 1hr equilibrium; rounded to whole number; read-out: Epic Kd BRD41
Protocol: (§1) Kd Determination of Inhibitors Binding to BRD4 Domain 1 and Domain 2
(§2) The binding of small molecule inhibitors to either BRD4 domain 1 or domain 2 were determined using the Epic, high-throughput, label-free platform (Corning, Lowell, MA). The Epic instrument incorporates an evanescent waveguide sensor within each well of its proprietary 384-well microplates. Direct binding of inhibitors to BRD4 immobilized onto the microplate well surface can be detected by exposing the waveguide to a broadband light source. The resulting resonant wavelength shift (measured in picometers (pm)) is proportional to the mass bound to the surface. Epic biochemical plates (Corning, Lowell, MA) were activated by adding 15 µL/well of 200 mM EDC and 50 mM Sulfo-NHS (Pierce Thermo Scientific, Rockford, IL) and incubated for 60 minutes at room temperature. Plates were washed three times with MilliQ water and dried by centrifugation (1 minute at 400 rpm). BRD4 immobilization was accomplished by resuspending the protein at a concentration of 150 µg/mL in 20 mM HEPES (pH 7) and adding 10 µL/well. […] Compound/inhibitor binding was determined by calculating difference between the baseline (first read) and second read. The resulting binding response was fitted to a single site binding isotherm in order to determine an equilibrium dissociation constant (Kd).

BRD4 domain 2 = BRD4 domain 2 (Homo sapiens, UniProt O60885); assay: Kd determination of inhibitors binding to BRD4 domain 2 (Epic label-free platform); conditions: direct binding to immobilized BRD4 domain 2; tripling dilution series from 20µM; about 1hr equilibrium; rounded to whole number
Protocol: as §1, §2

Row | pKd (BRD4 domain 1) | pKd (BRD4 domain 2) | SMILES
1 | 5.19 | 5.11 | Cc1noc(C)c1-c1cc(S(=O)(=O)N[C@@H]2CCC[C@H]2N)c2cccnc2c1 (stereo in doubt) [Compound 46, N-((1R,2R)-2-aminocyclopentyl)-7-(3,5-dimethylisoxazol-4-yl)quinoline-5-sulfonamide]
2 | 5.47 | 5.88 | Cc1noc(C)c1-c1cc(S(=O)(=O)NC2CCCC2)c2ccc(C(F)F)nc2c1 [Compound 2, N-cyclopentyl-2-(difluoromethyl)-7 - (3,5-dimethylisoxazol-4-yl)quinoline-5-sulfonamide]
3 | 5.90 | 5.53 | Cc1noc(C)c1-c1cc(S(=O)(=O)NC2CCCC2)c2ccc(Cl)nc2c1 [Compound 3, 2-chloro-N-cyclopentyl-7-(3,5-dimethylisoxazol-4-yl)quinoline-5-sulfonamide]
4 | 5.84 | 5.46 | Cc1noc(C)c1-c1cc(S(=O)(=O)NC2CCCC2)c2ccc(C3CC3)nc2c1 [Compound 4, N-cyclopentyl-2-cyclopropyl-7-(3,5-dimethylisoxazol-4-yl)quinoline-5-sulfonamide]
5 | 5.97 | 5.83 | Cc1noc(C)c1-c1cc(S(=O)(=O)NC2CCCC2)c2ccc(NCC3CC3)nc2c1 [Compound 5, N-cyclopentyl-2-((cyclopropylmethyl)amino)-7-(3,5-dimethylisoxazol-4-yl)quinoline-5-sulfonamide]
6 | 5.68 | 5.69 | Cc1noc(C)c1-c1cc(S(=O)(=O)NC2CCCC2)c2ccc(OCC3CC3)nc2c1 [Compound 6, N-cyclopentyl-2-(cyclopropylmethoxy) -7-(3,5-dimethylisoxazol-4-yl)quinoline-5-sulfonamide]
7 | 5.40 | 5.65 | Cc1noc(C)c1-c1cc(S(=O)(=O)NC2CC2)c2cccnc2c1 [Compound 8, N-cyclopropyl-7-(3,5-dimethylisoxazol-4-yl)quinoline-5-sulfonamide]
8 | < 4.70 | 4.90 | Cc1noc(C)c1-c1cc(S(=O)(=O)N(C)C2CC2)c2cccnc2c1 [Compound 9, N-cyclopropyl-7-(3,5-dimethylisoxazol-4-yl)-N-methylquinoline-5-sulfonamide]
9 | 5.50 | 5.57 | Cc1noc(C)c1-c1cc(S(=O)(=O)NC2CCC2)c2cccnc2c1 [Compound 10, N-cyclobutyl-7-(3,5-dimethylisoxazol-4-yl)quinoline-5-sulfonamide]
10 | 4.89 | < 4.70 | Cc1noc(C)c1-c1cc(S(=O)(=O)NCC2CC(F)(F)C2)c2cccnc2c1 [Compound 11, N-((3,3-difluorocyclobutyl)methyl)-7-(3,5-dimethylisoxazol-4-yl)quinoline-5-sulfonamide]
11 | 4.80 | < 4.70 | Cc1noc(C)c1-c1cc(S(=O)(=O)N[C@@H]2C[C@H]2c2ccccc2)c2cccnc2c1 [Compound 12, 7-(3,5-dimethylisoxazol-4-yl)-N-((1R,2S)-2-phenylcyclopropyl)qui noline-5-sulfonamide]
12 | 5.00 | 4.91 | Cc1noc(C)c1-c1cc(S(=O)(=O)N[C@@H]2CCC[C@@H]2c2ccc(F)cc2)c2cccnc2c1 [Compound 13, 7-(3,5-dimethylisoxazol-4-yl)-N-((1R,2R)-2-(4-fluorophenyl)cyclopentyl)quinoline-5-sulfonamide]
13 | 5.03 | 5.23 | Cc1noc(C)c1-c1cc(S(=O)(=O)NCC2CC2)c2cccnc2c1 [Compound 15, N-(cyclopropylmethyl)-7-(3,5-dimethylisoxazol-4-yl)quinoline-5-sulfonamide]
14 | 5.47 | 5.20 | COc1ccc2c(S(=O)(=O)NC3CCCC3)cc(-c3c(C)noc3C)cc2n1 [Compound 16, N-cyclopentyl-7-(3,5-dimethylisoxazol-4-yl)-2-methoxyquinoline-5 - sulfonamide]
15 | 6.05 | 5.96 | Cc1noc(C)c1-c1cc(S(=O)(=O)NC2CCCC2)c2ccc(N)nc2c1 [Compound 17, 2-amino-N-cyclopentyl-7-(3,5-dimethylisoxazol-4-yl)quinoline-5-sulfonamide]
16 | 5.04 | 5.37 | Cc1noc(C)c1-c1cc(S(=O)(=O)NC2CCCC2)c2cccnc2c1Cl [Compound 18, 8-chloro-N-cyclopentyl-7-(3,5-dimethylisoxazol-4-yl)quinoline-5-sulfonamide]
17 | 4.78 | 5.11 | Cc1noc(C)c1-c1cc(S(=O)(=O)N[C@H]2CC[C@@H](O)C2)c2cccnc2c1 [Compound 19, 7-(3,5-dimethylisoxazol-4-yl)-N-((1S,3R)-3-hydroxycyclopentyl)q uinoline-5-sulfonamide]
18 | 5.24 | 5.32 | Cc1noc(C)c1-c1cc(S(=O)(=O)N[C@@H]2CCC[C@H](O)C2)c2cccnc2c1 [Compound 20, 7-(3,5-dimethylisoxazol-4-yl)-N-((1R,3S)-3-hydroxycyclohexyl)qu inoline-5-sulfonamide]
19 | 4.98 | 4.76 | Cc1noc(C)c1-c1cc(S(=O)(=O)N[C@H]2CC[C@H](O)CC2)c2cccnc2c1 [Compound 21, 7-(3,5-dimethylisoxazol-4-yl)-N-((1r,4r)-4-hydroxycyclohexyl)qu inoline-5-sulfonamide]
20 | 5.99 | 6.30 | Cc1noc(C)c1-c1cc(S(=O)(=O)NC2CCCC2)c2cc(Br)c(=O)[nH]c2c1 [Compound 22, 3-bromo-N-cyclopentyl-7-(3,5-dimethylisoxazol-4-yl)-2-oxo-1,2-dihydroquinoline-5-sulfonamide]
21 | 4.71 | 4.78 | Cc1noc(C)c1-c1cc(S(=O)(=O)N[C@@H]2CCC[C@@H]2O)c2cccnc2c1 [Compound 23, 7-(3,5-dimethylisoxazol-4-yl)-N-((1R,2S)-2-hydroxycyclopentyl)q uinoline-5-sulfonamide]
22 | 5.45 | 5.67 | Cc1noc(C)c1-c1cc(S(=O)(=O)NC2(C)CCCC2)c2cccnc2c1 [Compound 24, 7-(3,5-dimethylisoxazol-4-yl)-N-(1-methylcyclopentyl)qui noline-5-sulfonamide]
23 | 4.79 | < 4.70 | Cc1noc(C)c1-c1cc(S(=O)(=O)N[C@H]2C[C@@H](NC(=O)OC(C)(C)C)C2)c2cccnc2c1 [Compound 25, tert-butyl ((1s,3s)-3-(7-(3,5-dimethylisoxazol-4-yl)quinoline-5-sulfonamido)cyclobutyl)carbamate]
24 | 5.39 | 5.45 | Cc1noc(C)c1-c1cc(S(=O)(=O)N[C@@H]2CCC[C@H]2O)c2cccnc2c1 [Compound 26, 7-(3,5-dimethylisoxazol-4-yl)-N-((1R,2R)-2-hydroxycyclopentyl)q uinoline-5-sulfonamide]
25 | 4.90 | 5.17 | Cc1noc(C)c1-c1cc(S(=O)(=O)N[C@H]2CCC[C@H]2O)c2cccnc2c1 [Compound 27, 7-(3,5-dimethylisoxazol-4-yl)-N-((1S,2R)-2-hydroxycyclopentyl)q uinoline-5-sulfonamide]
26 | 6.46 | 6.26 | Cc1noc(C)c1-c1cc(S(=O)(=O)NC2CCCC2)c2cc(-c3ccc(F)cc3)c(=O)[nH]c2c1 [Compound 28, N-cyclopentyl-7-(3,5-dimethylisoxazol-4-yl)-3-(4-fluorophenyl)-2-oxo-1,2-dihydroquinoline-5-sulfonamide]
